Results: ChEMBL document CHEMBL5346907, “Discovery of a novel oral type Ⅰ CDK8 inhibitor against acute myeloid leukemia” (Eur J Med Chem, 2023)

Key:
Assay type in all cases: functional
GES1 = assay: Antiproliferative activity against human GES1 cells incubated for 48 hrs by CCK8 assay
MGC-803 = assay: Antiproliferative activity against human MGC-803 cells incubated for 48 hrs by CCK8 assay
MDA-MB-231 = assay: Antiproliferative activity against human MDA-MB-231 cells incubated for 48 hrs by CCK8 assay
MOLM-13 = assay: Antiproliferative activity against human MOLM-13 cells incubated for 48 hrs by CCK8 assay
A-375 = assay: Antiproliferative activity against human A-375 cells incubated for 48 hrs by CCK8 assay
MV4-11 = assay: Antiproliferative activity against human MV4-11 cells incubated for 48 hrs by CCK8 assay
A549 = assay: Antiproliferative activity against human A549 cells incubated for 48 hrs by CCK8 assay

Cc1c(Br)c(Br)c2c3c1nc(N1CCNCC1)n3CCC2 [SEL-120 FREE BASE]
GI50 (GES1): 55.3 µM
GI50 (MGC-803): 16.3 µM
GI50 (MDA-MB-231): 9.6 µM
GI50 (MOLM-13): 20 nM
GI50 (A-375): 5.9 µM
GI50 (MV4-11): 70 nM
GI50 (A549): 12.1 µM
